# Measurements reported in ChEMBL document CHEMBL3351302, “Design, synthesis and biological evaluation of 4-anilinothieno[2,3-d]pyrimidine-based hydroxamic acid derivatives as novel histone deacetylase inhibitors” (Bioorg Med Chem, 2014).
# Molecular target: T1, Histone deacetylase (Homo sapiens) (UniProt Q13547+O15379+Q9UBN7+Q92769+Q9UQL6+Q8WUI4+Q9BY41+Q96DB2+P56524+Q9UKV0+Q969S8)
# Assay: Inhibition of HDAC in human RPMI8226 cells assessed as increase in histone H3 acetylation after 24 hrs by Western blot analysis
# Type: cell-based
# Details: RPMI-8226
row,Structure (SMILES),inhibition
1,O=C(CCCCCCC(=O)Nc1cc2c(Cl)ncnc2s1)NO,Dose-dependent effect
2,Cc1ccc(Nc2ncnc3sc(NC(=O)CCCCCCC(=O)NO)cc23)cc1,Dose-dependent effect
3,Cc1ccc(Nc2ncnc3sc(NC(=O)CCCCCCC(=O)NO)cc23)cc1C,Dose-dependent effect
4,O=C(CCCCCCC(=O)Nc1cc2c(Nc3ccccc3)ncnc2s1)NO,Dose-dependent effect
5,CCN(CC)c1ccc(Nc2ncnc3sc(NC(=O)CCCCCCC(=O)NO)cc23)cc1F,Dose-dependent effect
6,CN(C)c1ccc(Nc2ncnc3sc(NC(=O)CCCCCCC(=O)NO)cc23)cc1F,Dose-dependent effect

# Molecular target: T1, Histone deacetylase (Homo sapiens)
# Assay: Inhibition of HDAC in human RPMI8226 cells assessed as increase in alpha-tubulin acetylation after 24 hrs by Western blot analysis
# Type: cell-based
# Details: RPMI-8226
row,Structure (SMILES),inhibition
1,O=C(CCCCCCC(=O)Nc1cc2c(Cl)ncnc2s1)NO,Dose-dependent effect
2,Cc1ccc(Nc2ncnc3sc(NC(=O)CCCCCCC(=O)NO)cc23)cc1,Dose-dependent effect
3,Cc1ccc(Nc2ncnc3sc(NC(=O)CCCCCCC(=O)NO)cc23)cc1C,Dose-dependent effect
4,O=C(CCCCCCC(=O)Nc1cc2c(Nc3ccccc3)ncnc2s1)NO,Dose-dependent effect
5,CCN(CC)c1ccc(Nc2ncnc3sc(NC(=O)CCCCCCC(=O)NO)cc23)cc1F,Dose-dependent effect
6,CN(C)c1ccc(Nc2ncnc3sc(NC(=O)CCCCCCC(=O)NO)cc23)cc1F,Dose-dependent effect

# System: not listed separately
# Assay: Antiproliferative activity against human HCT116 cells after 72 hrs by WST8 assay
# Type: functional, cell-based
# Details: HCT-116, 72 h
row,Structure (SMILES),IC50 [nM]
1,O=C(CCCCCCC(=O)Nc1cc2c(Cl)ncnc2s1)NO,2920
2,O=C(CCCCCCC(=O)Nc1cc2c(Nc3ccc(O[C@H]4CCOC4)c(Cl)c3)ncnc2s1)NO,2240
3,Cc1ccc(Nc2ncnc3sc(NC(=O)CCCCCCC(=O)NO)cc23)cc1,2340
4,Cc1ccc(Nc2ncnc3sc(NC(=O)CCCCCCC(=O)NO)cc23)cc1C,1610
5,O=C(CCCCCCC(=O)Nc1cc2c(Nc3ccc(Cl)cc3F)ncnc2s1)NO,1700
6,O=C(CCCCCCC(=O)Nc1cc2c(Nc3ccc(N4CCCC4)c(F)c3)ncnc2s1)NO,4090
7,O=C(CCCCCCC(=O)Nc1cc2c(Nc3ccccc3)ncnc2s1)NO,1820
8,O=C(CCCCCCC(=O)Nc1cc2c(Nc3ccc(N4CCCCC4)c(F)c3)ncnc2s1)NO,1440
9,CCN(CC)c1ccc(Nc2ncnc3sc(NC(=O)CCCCCCC(=O)NO)cc23)cc1F,2550
10,CN(C)c1ccc(Nc2ncnc3sc(NC(=O)CCCCCCC(=O)NO)cc23)cc1F,4030
11,O=C(CCCCCCC(=O)Nc1cc2c(Nc3ccc(N4CCCC4)cc3)ncnc2s1)NO,3740
12,CCN(CC)c1ccc(Nc2ncnc3sc(NC(=O)CCCCCCC(=O)NO)cc23)cc1,4440

# Molecular target: Histone deacetylase 1 (Homo sapiens, UniProt Q13547)
# Assay: Inhibition of human recombinant full length HDAC1 using (Ac)-Lys-Tyr-Lys(-acetyl)-AMC substrate after 30 mins
# Details: not given
# Chain of Histone deacetylase 1 (Q13547 whole entry): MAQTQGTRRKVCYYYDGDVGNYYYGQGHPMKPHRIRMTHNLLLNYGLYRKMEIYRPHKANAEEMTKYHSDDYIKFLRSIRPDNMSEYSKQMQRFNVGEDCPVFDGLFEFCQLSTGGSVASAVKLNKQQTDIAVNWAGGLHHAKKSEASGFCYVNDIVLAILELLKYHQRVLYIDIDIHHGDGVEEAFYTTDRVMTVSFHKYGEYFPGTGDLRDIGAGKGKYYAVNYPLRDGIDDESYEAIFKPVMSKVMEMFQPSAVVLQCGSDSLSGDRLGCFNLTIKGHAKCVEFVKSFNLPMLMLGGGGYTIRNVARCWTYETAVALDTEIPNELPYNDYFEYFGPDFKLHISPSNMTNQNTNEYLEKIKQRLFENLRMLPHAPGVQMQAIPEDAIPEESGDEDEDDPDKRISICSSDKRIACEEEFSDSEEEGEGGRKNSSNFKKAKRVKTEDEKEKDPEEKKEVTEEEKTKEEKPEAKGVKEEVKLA
row,Structure (SMILES),IC50 [nM]
1,O=C(CCCCCCC(=O)Nc1cc2c(Cl)ncnc2s1)NO,25.5
2,O=C(CCCCCCC(=O)Nc1cc2c(Nc3ccc(O[C@H]4CCOC4)c(Cl)c3)ncnc2s1)NO,2.97
3,O=C(CCCCCCC(=O)Nc1cc2c(Nc3ccc(F)c(Cl)c3)ncnc2s1)NO,13.4
4,Cc1ccc(Nc2ncnc3sc(NC(=O)CCCCCCC(=O)NO)cc23)cc1,2.01
5,Cc1ccc(Nc2ncnc3sc(NC(=O)CCCCCCC(=O)NO)cc23)cc1C,1.14
6,O=C(CCCCCCC(=O)Nc1cc2c(Nc3ccc(Cl)cc3F)ncnc2s1)NO,12.5
7,O=C(CCCCCCC(=O)Nc1cc2c(Nc3ccc(N4CCCC4)c(F)c3)ncnc2s1)NO,14.5
8,O=C(CCCCCCC(=O)Nc1cc2c(Nc3ccccc3)ncnc2s1)NO,1.9
9,O=C(CCCCCCC(=O)Nc1cc2c(Nc3ccc(N4CCCCC4)c(F)c3)ncnc2s1)NO,5.39
10,CCN(CC)c1ccc(Nc2ncnc3sc(NC(=O)CCCCCCC(=O)NO)cc23)cc1F,4.57
11,CN(C)c1ccc(Nc2ncnc3sc(NC(=O)CCCCCCC(=O)NO)cc23)cc1F,4.51
12,O=C(CCCCCCC(=O)Nc1cc2c(Nc3ccc(N4CCCC4)cc3)ncnc2s1)NO,13.9
13,CCN(CC)c1ccc(Nc2ncnc3sc(NC(=O)CCCCCCC(=O)NO)cc23)cc1,32.9

# Molecular target: Histone deacetylase 3 (Homo sapiens, UniProt O15379)
# Assay: Inhibition of human recombinant full length HDAC3 using (Ac)-Lys-Tyr-Lys(-acetyl)-AMC substrate after 30 mins
# Details: not given
# Chain of Histone deacetylase 3 (O15379 whole entry): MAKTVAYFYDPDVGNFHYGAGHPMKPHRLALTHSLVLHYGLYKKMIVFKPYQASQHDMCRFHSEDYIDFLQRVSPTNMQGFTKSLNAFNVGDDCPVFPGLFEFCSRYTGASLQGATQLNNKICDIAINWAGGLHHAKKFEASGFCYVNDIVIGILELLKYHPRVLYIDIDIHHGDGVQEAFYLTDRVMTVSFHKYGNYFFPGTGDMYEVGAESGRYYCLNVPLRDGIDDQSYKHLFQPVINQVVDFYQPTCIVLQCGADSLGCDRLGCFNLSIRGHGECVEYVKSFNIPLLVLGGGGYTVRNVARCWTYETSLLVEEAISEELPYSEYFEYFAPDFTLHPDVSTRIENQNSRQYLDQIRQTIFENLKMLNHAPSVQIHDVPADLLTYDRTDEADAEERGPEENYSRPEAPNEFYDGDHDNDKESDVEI
row,Structure (SMILES),IC50 [nM]
1,O=C(CCCCCCC(=O)Nc1cc2c(Cl)ncnc2s1)NO,26.5
2,O=C(CCCCCCC(=O)Nc1cc2c(Nc3ccc(O[C@H]4CCOC4)c(Cl)c3)ncnc2s1)NO,3.58
3,O=C(CCCCCCC(=O)Nc1cc2c(Nc3ccc(F)c(Cl)c3)ncnc2s1)NO,17.9
4,Cc1ccc(Nc2ncnc3sc(NC(=O)CCCCCCC(=O)NO)cc23)cc1,2.92
5,Cc1ccc(Nc2ncnc3sc(NC(=O)CCCCCCC(=O)NO)cc23)cc1C,3.56
6,O=C(CCCCCCC(=O)Nc1cc2c(Nc3ccc(Cl)cc3F)ncnc2s1)NO,14.5
7,O=C(CCCCCCC(=O)Nc1cc2c(Nc3ccc(N4CCCC4)c(F)c3)ncnc2s1)NO,14.1
8,O=C(CCCCCCC(=O)Nc1cc2c(Nc3ccccc3)ncnc2s1)NO,3.47
9,O=C(CCCCCCC(=O)Nc1cc2c(Nc3ccc(N4CCCCC4)c(F)c3)ncnc2s1)NO,8.19
10,CCN(CC)c1ccc(Nc2ncnc3sc(NC(=O)CCCCCCC(=O)NO)cc23)cc1F,3.52
11,CN(C)c1ccc(Nc2ncnc3sc(NC(=O)CCCCCCC(=O)NO)cc23)cc1F,3.22
12,O=C(CCCCCCC(=O)Nc1cc2c(Nc3ccc(N4CCCC4)cc3)ncnc2s1)NO,14.1
13,CCN(CC)c1ccc(Nc2ncnc3sc(NC(=O)CCCCCCC(=O)NO)cc23)cc1,39.7

# Molecular target: T2, Protein deacetylase HDAC6 (Homo sapiens, UniProt Q9UBN7)
# T2 sequence (Q9UBN7 whole entry): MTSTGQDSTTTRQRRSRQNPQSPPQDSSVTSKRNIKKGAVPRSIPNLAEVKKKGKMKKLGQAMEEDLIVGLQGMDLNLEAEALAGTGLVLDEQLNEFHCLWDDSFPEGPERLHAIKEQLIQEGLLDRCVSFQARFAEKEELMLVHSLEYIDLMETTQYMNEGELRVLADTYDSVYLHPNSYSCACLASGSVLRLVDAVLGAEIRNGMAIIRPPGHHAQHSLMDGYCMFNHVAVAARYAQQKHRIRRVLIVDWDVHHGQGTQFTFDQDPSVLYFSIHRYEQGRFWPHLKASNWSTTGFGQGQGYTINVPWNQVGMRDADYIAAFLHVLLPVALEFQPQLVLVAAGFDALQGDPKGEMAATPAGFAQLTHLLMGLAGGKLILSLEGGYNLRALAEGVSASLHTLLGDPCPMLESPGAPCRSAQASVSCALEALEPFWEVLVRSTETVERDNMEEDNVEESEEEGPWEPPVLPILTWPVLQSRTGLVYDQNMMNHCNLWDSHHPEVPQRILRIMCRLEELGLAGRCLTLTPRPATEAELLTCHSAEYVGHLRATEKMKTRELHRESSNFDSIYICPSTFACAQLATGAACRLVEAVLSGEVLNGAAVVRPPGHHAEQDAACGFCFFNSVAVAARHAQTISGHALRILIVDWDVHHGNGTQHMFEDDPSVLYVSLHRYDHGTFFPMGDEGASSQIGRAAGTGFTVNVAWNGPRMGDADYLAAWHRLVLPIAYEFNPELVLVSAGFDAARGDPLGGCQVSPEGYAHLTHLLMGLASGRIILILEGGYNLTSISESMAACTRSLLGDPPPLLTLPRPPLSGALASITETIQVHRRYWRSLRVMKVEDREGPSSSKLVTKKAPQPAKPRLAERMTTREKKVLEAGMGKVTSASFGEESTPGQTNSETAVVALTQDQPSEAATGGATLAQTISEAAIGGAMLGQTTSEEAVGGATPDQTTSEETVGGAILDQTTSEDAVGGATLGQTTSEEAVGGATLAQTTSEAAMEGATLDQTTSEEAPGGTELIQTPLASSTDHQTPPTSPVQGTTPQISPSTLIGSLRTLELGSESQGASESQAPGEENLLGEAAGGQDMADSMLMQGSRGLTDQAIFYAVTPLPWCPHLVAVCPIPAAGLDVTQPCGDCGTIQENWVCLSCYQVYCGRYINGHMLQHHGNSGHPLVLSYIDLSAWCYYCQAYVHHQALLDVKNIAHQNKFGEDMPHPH
# Assay: Inhibition of human recombinant full length HDAC6 using (Boc-Lys (-acetyl)-AMC substrate after 30 mins
# Details: not given
row,Structure (SMILES),IC50 [nM]
1,O=C(CCCCCCC(=O)Nc1cc2c(Cl)ncnc2s1)NO,15.1
2,O=C(CCCCCCC(=O)Nc1cc2c(Nc3ccc(O[C@H]4CCOC4)c(Cl)c3)ncnc2s1)NO,1.9
3,O=C(CCCCCCC(=O)Nc1cc2c(Nc3ccc(F)c(Cl)c3)ncnc2s1)NO,22
4,Cc1ccc(Nc2ncnc3sc(NC(=O)CCCCCCC(=O)NO)cc23)cc1,5.37
5,Cc1ccc(Nc2ncnc3sc(NC(=O)CCCCCCC(=O)NO)cc23)cc1C,11.4
6,O=C(CCCCCCC(=O)Nc1cc2c(Nc3ccc(Cl)cc3F)ncnc2s1)NO,5.58
7,O=C(CCCCCCC(=O)Nc1cc2c(Nc3ccc(N4CCCC4)c(F)c3)ncnc2s1)NO,9.28
8,O=C(CCCCCCC(=O)Nc1cc2c(Nc3ccccc3)ncnc2s1)NO,12
9,O=C(CCCCCCC(=O)Nc1cc2c(Nc3ccc(N4CCCCC4)c(F)c3)ncnc2s1)NO,3.42
10,CCN(CC)c1ccc(Nc2ncnc3sc(NC(=O)CCCCCCC(=O)NO)cc23)cc1F,3.44
11,CN(C)c1ccc(Nc2ncnc3sc(NC(=O)CCCCCCC(=O)NO)cc23)cc1F,2.69
12,O=C(CCCCCCC(=O)Nc1cc2c(Nc3ccc(N4CCCC4)cc3)ncnc2s1)NO,7.19
13,CCN(CC)c1ccc(Nc2ncnc3sc(NC(=O)CCCCCCC(=O)NO)cc23)cc1,43.2

# System: not listed separately
# Assay: Antiproliferative activity against human RPMI8226 cells after 72 hrs by WST8 assay
# Type: functional, cell-based
# Details: RPMI-8226, 72 h
row,Structure (SMILES),IC50 [nM]
1,O=C(CCCCCCC(=O)Nc1cc2c(Cl)ncnc2s1)NO,2180
2,O=C(CCCCCCC(=O)Nc1cc2c(Nc3ccc(O[C@H]4CCOC4)c(Cl)c3)ncnc2s1)NO,4200
3,Cc1ccc(Nc2ncnc3sc(NC(=O)CCCCCCC(=O)NO)cc23)cc1,3840
4,Cc1ccc(Nc2ncnc3sc(NC(=O)CCCCCCC(=O)NO)cc23)cc1C,2390
5,O=C(CCCCCCC(=O)Nc1cc2c(Nc3ccc(Cl)cc3F)ncnc2s1)NO,3500
6,O=C(CCCCCCC(=O)Nc1cc2c(Nc3ccc(N4CCCC4)c(F)c3)ncnc2s1)NO,4630
7,O=C(CCCCCCC(=O)Nc1cc2c(Nc3ccccc3)ncnc2s1)NO,3790
8,O=C(CCCCCCC(=O)Nc1cc2c(Nc3ccc(N4CCCCC4)c(F)c3)ncnc2s1)NO,3280
9,CCN(CC)c1ccc(Nc2ncnc3sc(NC(=O)CCCCCCC(=O)NO)cc23)cc1F,1410
10,CN(C)c1ccc(Nc2ncnc3sc(NC(=O)CCCCCCC(=O)NO)cc23)cc1F,3490
11,O=C(CCCCCCC(=O)Nc1cc2c(Nc3ccc(N4CCCC4)cc3)ncnc2s1)NO,5420
12,CCN(CC)c1ccc(Nc2ncnc3sc(NC(=O)CCCCCCC(=O)NO)cc23)cc1,5950
